In brackets after ≈: the same amount, converted by molar mass. Entries after “also recorded” stand apart in the source; their conditions may differ. Read-outs that look alike come from different tables or passages of the source. No end group written: not given here.
Legend:
[1] = cited from earlier work
From the text: The stability of AMPs is crucial for storage and applications. Temperature and pH are critical parameters impacting AMP stability. In addition, the good stability of AMPs to physiological salts and serum has been considered a desirable property for clinical applications. In this study, BP203 and MAP-0403 J-2 retained antibacterial activity under elevated temperatures, various pH conditions, and in the presence of physiological salts and serum environment. […] The hemolytic activity of BP203 at 150 μM (~300 μg/mL) wa ...

[2] = tested on: E. coli ATCC 25922 and colistin-resistant E. coli clinical isolates; conditions: for MICs against colistin-resistant E. coli clinical isolates: range over ten isolates
Protocol: (§1) The MICs of BP203 and MAP-0403 J-2 against clinically colistin-resistant E. coli and K. pneumoniae isolates were determined using the broth microdilution method, according to CLSI recommendations. Briefly, the peptides were subjected to serial dilution in cation-adjusted Mueller-Hinton broth (CAMHB) and added to a 96-well microtiter plate (Wuxi NEST Biotechnology, Wuxi, China). Subsequently, bacterial suspensions from freshly mid-log phase cultures were diluted to 10^6 CFU/mL with CAMHB, and introduced to each well containing the peptides.

[3] = tested on: K. pneumoniae ATCC BAA-1706 and colistin-resistant K. pneumoniae clinical isolates; conditions: for MIC against colistin-resistant K. pneumoniae clinical isolates: range over ten isolates
Protocol: as §1

[4] = tested on: sheep red blood cells; assay: Hemolytic activity assay; format: cell-based; conditions: at concentrations as high as 200 μg/mL
Protocol: Sheep erythrocytes were employed to assess the hemolytic activity of BP203 and MAP-0403 J-2, following previously described with some modifications. Briefly, defibrinated sheep red blood cells (sRBCs) were centrifuged at 1,000× g, 4°C for 10 min. The packed sRBCs underwent three times washes with phosphate buffer saline (PBS), at pH 7.4, and were subsequently suspended in PBS to achieve a concentration of 4% (v/v). […] Following an incubation period of 1 h at 37°C, the mixtures were centrifuged at room temperature, 1,000× g for 10 min. The supernatants were collected and transferred to a 96-well microplate. Next, absorbance measurement was taken at 540 nm using a microplate reader (Tecan Group, Zurich, Switzerland). Blank, negative and positive controls were established using sRBCs incubated with PBS alone, BSA solution, and 0.1% Triton X-100, respectively. […] The percentage of hemolytic activity was calculated with the following equation: Hemolysis (%) = {(Sample absorbance—PBS absorbance)/(0.1% Triton X-100 absorbance—PBS absorbance)} × 100.

Compound: CC[C@H](C)[C@H](NC(=O)[C@H](CCCCN)NC(=O)[C@H](CCCCN)NC(=O)[C@H](Cc1ccccc1)NC(=O)[C@H](CC(C)C)NC(=O)[C@H](CCCCN)NC(=O)[C@@H](N)CCCCN)C(=O)N[C@@H](CC(C)C)C(=O)N[C@@H](CCCNC(=N)N)C(=O)N[C@@H](Cc1ccc(O)cc1)C(=O)N[C@@H](CC(C)C)C(N)=O [BP203]
- Hemolytic activity ([1]; at 150 μM (~300 μg/mL)): 31%
- MBC ([2]; E. coli ATCC 25922): 4 µg/mL (≈ 2.76 µM)
- MIC ([2]; E. coli ATCC 25922): 4 µg/mL (≈ 2.76 µM)
- MBC ([2]; EC-01): 2 µg/mL (≈ 1.38 µM)
- MIC ([2]; EC-01): 2 µg/mL (≈ 1.38 µM)
- MBC ([2]; EC-02): 8 µg/mL (≈ 5.52 µM)
- MIC ([2]; EC-02): 8 µg/mL (≈ 5.52 µM)
- MBC ([2]; EC-03): 2 µg/mL (≈ 1.38 µM)
- MIC ([2]; EC-03): 2 µg/mL (≈ 1.38 µM)
- MBC ([2]; EC-04): 4 µg/mL (≈ 2.76 µM)
- MIC ([2]; EC-04): 2 µg/mL (≈ 1.38 µM)
- MBC ([2]; EC-05): 8 µg/mL (≈ 5.52 µM)
- MIC ([2]; EC-05): 8 µg/mL (≈ 5.52 µM)
- MBC ([2]; EC-06): 2 µg/mL (≈ 1.38 µM)
- MIC ([2]; EC-06): 2 µg/mL (≈ 1.38 µM)
- MBC ([2]; EC-07): 8 µg/mL (≈ 5.52 µM)
- MIC ([2]; EC-07): 8 µg/mL (≈ 5.52 µM)
- MBC ([2]; EC-08): 16 µg/mL (≈ 11 µM)
- MIC ([2]; EC-08): 16 µg/mL (≈ 11 µM)
- MBC ([2]; EC-09): 2 µg/mL (≈ 1.38 µM)
- MIC ([2]; EC-09): 2 µg/mL (≈ 1.38 µM)
- MBC ([2]; EC-10): 8 µg/mL (≈ 5.52 µM)
- MIC ([2]; EC-10): 8 µg/mL (≈ 5.52 µM)
- MICs against colistin-resistant E. coli clinical isolates [2]: 2 to 16 µg/mL
- MIC for the majority of (most) colistin-resistant K. pneumoniae isolates [3]: > 128 µg/mL
- MBC ([3]; K. pneumoniae ATCC BAA-1706): 4 µg/mL (≈ 2.76 µM)
- MIC ([3]; K. pneumoniae ATCC BAA-1706): 4 µg/mL (≈ 2.76 µM)
- MBC ([3]; KP-01): 16 µg/mL (≈ 11 µM)
- MIC ([3]; KP-01): 16 µg/mL (≈ 11 µM)
- MBC ([3]; KP-02): 256 µg/mL (≈ 177 µM)
- MIC ([3]; KP-02): 256 µg/mL (≈ 177 µM)
- MBC ([3]; KP-03): 128 µg/mL (≈ 88.3 µM)
- MIC ([3]; KP-03): 128 µg/mL (≈ 88.3 µM)
- MBC ([3]; KP-04): 512 µg/mL (≈ 353 µM)
- MIC ([3]; KP-04): 512 µg/mL (≈ 353 µM)
- MBC ([3]; KP-05): 32 µg/mL (≈ 22.1 µM)
- MIC ([3]; KP-05): 32 µg/mL (≈ 22.1 µM)
- MBC ([3]; KP-06): 256 µg/mL (≈ 177 µM)
- MIC ([3]; KP-06): 256 µg/mL (≈ 177 µM)
- MBC ([3]; KP-07): 128 µg/mL (≈ 88.3 µM)
- MIC ([3]; KP-07): 128 µg/mL (≈ 88.3 µM)
- MBC ([3]; KP-08): 256 µg/mL (≈ 177 µM)
- MIC ([3]; KP-08): 256 µg/mL (≈ 177 µM)
- MBC ([3]; KP-09): 512 µg/mL (≈ 353 µM)
- MIC ([3]; KP-09): 512 µg/mL (≈ 353 µM)
- MBC ([3]; KP-10): 512 µg/mL (≈ 353 µM)
- MIC ([3]; KP-10): 512 µg/mL (≈ 353 µM)
- MIC against colistin-resistant K. pneumoniae clinical isolates [3]: 16 to 512 µg/mL
- Hemolysis (in words) [4]: negligible hemolysis; also recorded: no hemolytic activity

Compound: KWLRRPWRRWR-NH2 [MAP-0403 J-2]
- Hemolytic activity ([1]; at 100 μM (~678 μg/mL)): 3.4%
- MBC ([2]; E. coli ATCC 25922): 16 µg/mL
- MIC ([2]; E. coli ATCC 25922): 16 µg/mL
- MBC ([2]; EC-01): 32 µg/mL
- MIC ([2]; EC-01): 16 µg/mL
- MBC ([2]; EC-02): 32 µg/mL
- MIC ([2]; EC-02): 32 µg/mL
- MBC ([2]; EC-03): 16 µg/mL
- MIC ([2]; EC-03): 8 µg/mL
- MBC ([2]; EC-04): 8 µg/mL
- MIC ([2]; EC-04): 8 µg/mL
- MBC ([2]; EC-05): 64 µg/mL
- MIC ([2]; EC-05): 32 µg/mL
- MBC ([2]; EC-06): 32 µg/mL
- MIC ([2]; EC-06): 32 µg/mL
- MBC ([2]; EC-07): 32 µg/mL
- MIC ([2]; EC-07): 32 µg/mL
- MBC ([2]; EC-08): 64 µg/mL
- MIC ([2]; EC-08): 32 µg/mL
- MBC ([2]; EC-09): 32 µg/mL
- MIC ([2]; EC-09): 8 µg/mL
- MBC ([2]; EC-10): 64 µg/mL
- MIC ([2]; EC-10): 32 µg/mL
- MICs against colistin-resistant E. coli clinical isolates [2]: 8 to 32 µg/mL
- MBC ([3]; K. pneumoniae ATCC BAA-1706): 16 µg/mL
- MIC ([3]; K. pneumoniae ATCC BAA-1706): 16 µg/mL
- MBC ([3]; KP-01): >512 µg/mL
- MIC ([3]; KP-01): >512 µg/mL
- MBC ([3]; KP-02): 256 µg/mL
- MIC ([3]; KP-02): 128 µg/mL
- MBC ([3]; KP-03): >512 µg/mL
- MIC ([3]; KP-03): >512 µg/mL
- MBC ([3]; KP-04): >512 µg/mL
- MIC ([3]; KP-04): >512 µg/mL
- MBC ([3]; KP-05): 512 µg/mL
- MIC ([3]; KP-05): 256 µg/mL
- MBC ([3]; KP-06): >512 µg/mL
- MIC ([3]; KP-06): >512 µg/mL
- MBC ([3]; KP-07): >512 µg/mL
- MIC ([3]; KP-07): >512 µg/mL
- MBC ([3]; KP-08): >512 µg/mL
- MIC ([3]; KP-08): >512 µg/mL
- MBC ([3]; KP-09): >512 µg/mL
- MIC ([3]; KP-09): >512 µg/mL
- MBC ([3]; KP-10): >512 µg/mL
- MIC ([3]; KP-10): >512 µg/mL
- MIC against colistin-resistant K. pneumoniae clinical isolates [3]: ≥ 512 µg/mL
- Hemolysis (in words) [4]: negligible hemolysis; also recorded: no hemolytic activity
